Measurements published in patent US12435085B2, “Crystalline forms and formulations of a VCP/p97 inhibitor” (CASI Pharmaceuticals, Inc., priority 2020, dated 2025).

Key:
[1] = Relative humidity (RH) stress of salts; type: physicochemical; conditions: solid in open vial, 10 days at 94% RH
From the text: Solids of select Compound 1 salts were exposed to ˜94% RH (ASTM Standard E, 104-85, 1996) for a given period of time by placing the solids into an open vial inside a sealed container. Samples were observed visually for signs of deliquescence after removal from the stress environment.

p97 = p97 (Homo sapiens, UniProt P55072); experiment: p97 inhibition assay (ADP glo luminescence); type: biochemical; conditions: ATP 20 μM, p97 20 nM, 37° C. for 15 min
p97, sequence (P55072 whole entry): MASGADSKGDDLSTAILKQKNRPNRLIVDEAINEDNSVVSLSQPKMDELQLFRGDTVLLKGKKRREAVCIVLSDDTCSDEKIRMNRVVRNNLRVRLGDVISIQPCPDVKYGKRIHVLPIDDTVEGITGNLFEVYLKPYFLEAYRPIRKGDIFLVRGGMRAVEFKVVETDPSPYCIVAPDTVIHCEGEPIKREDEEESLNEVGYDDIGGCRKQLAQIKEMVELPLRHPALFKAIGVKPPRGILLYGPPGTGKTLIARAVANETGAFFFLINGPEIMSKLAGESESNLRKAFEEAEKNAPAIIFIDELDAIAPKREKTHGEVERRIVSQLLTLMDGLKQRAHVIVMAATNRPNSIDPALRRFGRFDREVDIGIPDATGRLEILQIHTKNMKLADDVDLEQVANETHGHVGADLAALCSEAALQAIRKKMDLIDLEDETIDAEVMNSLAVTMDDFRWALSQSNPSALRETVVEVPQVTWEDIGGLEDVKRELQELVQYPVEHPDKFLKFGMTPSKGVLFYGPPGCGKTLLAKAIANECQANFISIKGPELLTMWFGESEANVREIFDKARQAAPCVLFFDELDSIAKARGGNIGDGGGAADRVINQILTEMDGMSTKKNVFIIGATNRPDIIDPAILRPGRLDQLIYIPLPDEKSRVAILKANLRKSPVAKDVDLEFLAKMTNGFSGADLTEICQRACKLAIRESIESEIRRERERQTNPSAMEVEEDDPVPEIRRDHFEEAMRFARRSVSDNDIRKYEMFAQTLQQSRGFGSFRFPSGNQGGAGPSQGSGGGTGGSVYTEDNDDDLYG
Experimental: The p97 assay is an assay used to determine inhibitory activity of compounds against the p97 complex. Inhibition of activity of the p97 proteosome complex can enable apoptosis and cause elimination of neoplastic cells (cancer cells). The assay follows that of Christianson in Nat. Cell Biol., (2011) 14:93. The reagents used for the p97 assay include an assay buffer which is a mixture of 50 mM TRIS pH 7.5, 20 mM MgCI˜, 0.02% TX-100, 1 mM DTT and 0.2% (v/v) glycerol. The well plate is a Corning 3674, 384w plate. The identification kit is an ADP glo kit (Promega): stop buffer, detection reagent.
The assay is conducted as follows: • Serial dilute compound in DMSO in a 1:3.33-fold 10 point serial dilution. • In each well of 384w plate add the following reagents: • 0.5 μL compound serial diluted in DMSO (Final Conc. 10%) • 2 μL ATP (Final Conc.=20 μM, diluted in assay buffer) • 2.5 μL p97 (Final Conc.=20 nM, diluted in assay buffer). • Incubate at 37° C. for 15 min. • Add 5 μL of stop buffer, incubate at RT for 40 min. • Add 10 μL of detection reagent, incubate at RT for 30 min. • Read luminescence on Envision plate reader. […]

Compound	RH stress: change in appearance/texture (signs of deliquescence, visual) [1]	IC50 (p97)
Cc1cc2c(C(N)=O)cccc2n1-c1nc2c(c(NCc3ccccc3)n1)CCCN2.Cl.Cl [Compound 1 hydrochloride, 1-(4-(benzylamino)-5,6,7,8-tetrahydropyrido[2,3-d]pyrimidin-2-yl)-2-methyl-1H-indole-4-carboxamide hydrochloric acid salt (hydrochloride)]	no apparent change in appearance/texture	–
Cc1cc2c(C(N)=O)cccc2n1-c1nc2c(c(NCc3ccccc3)n1)CCCN2.O=S(=O)(O)O.O=S(=O)(O)O [Compound 1 sulfate, 1-(4-(benzylamino)-5,6,7,8-tetrahydropyrido[2,3-d]pyrimidin-2-yl)-2-methyl-1H-indole-4-carboxamide sulfuric acid salt (sulfate)]	no apparent change in appearance/texture	–
Cc1cc2c(C(N)=O)cccc2n1-c1nc2c(c(NCc3ccccc3)n1)CCCN2.Cc1ccc(S(=O)(=O)O)cc1.Cc1ccc(S(=O)(=O)O)cc1 [Compound 1 tosylate, 1-(4-(benzylamino)-5,6,7,8-tetrahydropyrido[2,3-d]pyrimidin-2-yl)-2-methyl-1H-indole-4-carboxamide p-toluenesulfonic acid salt (tosylate)]	no apparent change in appearance/texture	–
Cc1cc2c(C(N)=O)cccc2n1-c1nc2c(c(NCc3ccccc3)n1)CCCN2 [Compound 1, 1-(4-(benzylamino)-5,6,7,8-tetrahydropyrido[2,3-d]pyrimidin-2-yl)-2-methyl-1H-indole-4-carboxamide]	–	< 30 nM
